Data on one compound can be found in patent US20230276817A1, “PREPARATION AND METHOD FOR IMPROVING RiNG ROT RESISTANCE OF APPLE FRUITS” (Shandong Institute of Pomology, priority 2022, published 2023).

Holding throughout (format): in vivo
In experiment [1] the test system is Botryosphaeria dothidea. As to the kind of experiment: In-vitro inoculation of sorbitol-soaked mature "Red delicious" apple fruits with ring rot fungus. As for the experimental part:
(§1) A fungus block of Botrvosphaeria dothidea was inoculated in a potato dextrose agar (PDA) medium by a puncher having a diameter of 5 mm, and inverted and cultured in the dark at 28° C. for 10 days.
S21: An in-vitro inoculation method was adopted for identifying disease resistance of the “Red delicious” apple fruits; and 6 treatments were set as follows:
S22: Surfaces of mature “Red delicious” fruits (within 140 days after flowering) were disinfected with 0.1% of sodium hypochlorite; and the fruits were fully washed with sterilized deionized water, aired and stood at 25° C. for 12 h for later use.
S23: The “Red delicious” fruits of the same size were selected and respectively soaked in the sterilized deionized water, the sorbitol solution of 100 mM, the sorbitol solution of 150 mM, the sorbitol solution of 200 mM and the sorbitol solution of 300 mM; and 10 fruits were treated in each treatment. The apples were taken out within 3 h after treatment; surface liquid was wiped up; middle parts of the surfaces of the apple fruits were punctured by sterilized toothpicks at a depth of 5 mm: 0.02 g of Botryosphaeria. dothidea hyphae having vigorous and consistent growth within 10 days was added into the punctured parts; and the single pathogenic fungus inoculation treatment was taken as control. After inoculation, the “Red delicious” fruits were cultured in a thermostatic incubator at 28° C. in the dark. A disease spot diameter served as a measurement standard of the incidence degree of the apple fruits; diameters of 5 points of each disease spot were measured; and the mean value was taken as the result. Since 3 d after treatment, disease spot diameters of the apple fruits in different treatments were photographed and recorded every day; and the diameters were continuously recorded for 4 d. A significance level of disease spot size differences among the treatment groups was calculated according to analysis of variance.

In experiment [2] the test system is Botryosphaeria dothidea. As to the kind of experiment: In-vitro inoculation of sorbitol-soaked mature "Fuji" apple fruits with ring rot fungus. As for the experimental part: as §1
S31: An in-vitro inoculation method was adopted for identifying disease resistance of the “Fuji” apple fruits; and 6 treatments were set as follows:
S32: Surfaces of mature “Fuji” fruits (within 180 days after flowering) were disinfected with 0.1% of sodium hypochlorite; and the fruits were fully washed with sterilized deionized water, aired and stood at 25° C. for 12 h for later use.
S33: The “Fuji” fruits of the same size were selected and respectively soaked in the sterilized deionized water, the sorbitol solution of 100 mM, the sorbitol solution of 150 mM, the sorbitol solution of 200 mM and the sorbitol solution of 300 mM; and 10 fruits were treated in each treatment. The apples were taken out within 3 h after treatment; surface liquid was wiped up; middle parts of the surfaces of the apple fruits were punctured by sterilized toothpicks at a depth of 5 mm; 0.02 g of Botryosphaeria dothidea hyphae having vigorous and consistent growth within 10 days was added into the punctured parts; and the single pathogenic fungus inoculation treatment was taken as control. After inoculation, the “Fuji” fruits were cultured in a thermostatic incubator at 28° C. in the dark. A disease spot diameter served as a measurement standard of the incidence degree of the apple fruits; diameters of 5 points of each disease spot were measured; and the mean value was taken as the result. Since 3 d after treatment, disease spot diameters of the apple fruits in different treatments were photographed and recorded every day; and the diameters were continuously recorded for 4 d. A significance level of disease spot size differences among the treatment groups was calculated according to analysis of variance.

For experiment [3], the system named is Botryosphaeria dothidea. As to the kind of experiment: In-vitro inoculation of sorbitol-soaked mature "Gala" apple fruits with ring rot fungus. As to the method: as §1
S41: An in-vitro inoculation method was adopted for identifying disease resistance of the “Gala” apple fruits, and 6 treatments were set as follows:
S42: Surfaces of mature “Gala” fruits (within 120 days after flowering) were disinfected with 0.1% of sodium hypochlorite; and the fruits were fully washed with sterilized deionized water, aired and stood at 25° C. for 12 h for later use.
S43: The “Gala” fruits of the same size were selected and respectively soaked in the sterilized deionized water, the sorbitol solution of 100 mM, the sorbitol solution of 150 mM, the sorbitol solution of 200 mM and the sorbitol solution of 300 mM; and 10 fruits were treated in each treatment. The apples were taken out within 3 h after treatment; surface liquid was wiped up; middle parts of the surfaces of the apple fruits were punctured by sterilized toothpicks at a depth of 5 mm; 0.02 g of Botryosphaeria dothidea hyphae having vigorous and consistent growth within 10 days was added into the punctured parts; and the single pathogenic fungus inoculation treatment was taken as control. After inoculation, the “Gala” fruits were cultured in a thermostatic incubator at 28° C. in the dark. A disease spot diameter served as a measurement standard of the incidence degree of the apple fruits; diameters of 5 points of each disease spot were measured; and the mean value was taken as the result. Since 3 d after treatment, disease spot diameters of the apple fruits in different treatments were photographed and recorded every day; and the diameters were continuously recorded for 4 d. A significance level of disease spot size differences among the treatment groups was calculated according to analysis of variance.

The subject of experiment [4] is Botryosphaeria dothidea. As to the kind of experiment: In-vitro inoculation of sorbitol-soaked mature "Golden delicious" apple fruits with ring rot fungus. As to the method:
as §1
S51: An in-vitro inoculation method was adopted for identifying disease resistance of the “Golden delicious” apple fruits; and 6 treatments were set as follows:
S52: Surfaces of mature “Golden delicious” fruits (within 135 days after flowering) were disinfected with 0.1% of sodium hypochlorite; and the fruits were fully washed with sterilized deionized water, aired and stood at 25° C. for 12 h for later use.
S53: The “Golden delicious” fruits of the same size were selected and respectively soaked in the sterilized deionized water, the sorbitol solution of 100 mM, the sorbitol solution of 150 mM, the sorbitol solution of 200 mM and the sorbitol solution of 300 mM; and 10 fruits were treated in each treatment. The apples were taken out within 3 h after treatment; surface liquid was wiped up; middle parts of the surfaces of the apple fruits were punctured by sterilized toothpicks at a depth of 5 mm; 0.02 g of Botryosphaeria dothidea hyphae having vigorous and consistent growth within 10 days was added into the punctured parts; and the single pathogenic fungus inoculation treatment was taken as control. After inoculation, the “Golden delicious” fruits were cultured in a thermostatic incubator at 28° C. in the dark. A disease spot diameter served as a measurement standard of the incidence degree of the apple fruits; diameters of 5 points of each disease spot were measured; and the mean value was taken as the result. Since 3 d after treatment, disease spot diameters of the apple fruits in different treatments were photographed and recorded every day; and the diameters were continuously recorded for 4 d. A significance level of disease spot size differences among the treatment groups was calculated according to analysis of variance.

Where [5] appears, read: sorbitol solution of 200 mM, soak 3 h, 6 d after inoculation.
Setting [6] is: sorbitol solution of 300 mM, 6 d after inoculation.
Setting [7] is: sorbitol solution soak 3 h, 3-6 d after inoculation.

In the case of `OC[C@@H](O)[C@@H](O)[C@H](O)[C@@H](O)CO` [sorbitol, D-Sorbitol], the optimum treatment concentration with Botryosphaeria dothidea [1] was 200 mM; in the experiment with Botryosphaeria dothidea [2], 150 mM; in the experiment with Botryosphaeria dothidea [3], 200 mM; with Botryosphaeria dothidea [4], 200 mM. Moreover, the disease spot diameter was 0.76 cm in the experiment with Botryosphaeria dothidea [1] (setting [5]) and 1.86 cm with Botryosphaeria dothidea [2] (sorbitol solution of 150 mM, soak 3 h, 6 d after inoculation). Besides, the “disease spot diameter versus 200 mM treatment” value in the experiment with Botryosphaeria dothidea [1] (setting [6]), in the experiment on Botryosphaeria dothidea [3] (setting [6]) and in the experiment with Botryosphaeria dothidea [4] (setting [6]) was “no significant difference” each time. Moreover, the “increase rate of the disease spot diameters compared with the control” value in the experiment on Botryosphaeria dothidea [1] (setting [7]), in the experiment on Botryosphaeria dothidea [2] (setting [7]), with Botryosphaeria dothidea [3] (setting [7]) and in the experiment with Botryosphaeria dothidea [4] (setting [7]) was “significantly decreased” throughout. The “disease spot diameter versus 150 mM treatment” value with Botryosphaeria dothidea [2] (sorbitol solution of 200 mM, 6 d after inoculation) was “no significant difference”; in the experiment with Botryosphaeria dothidea [2] (setting [6]), “no significant difference”. The “average disease spot diameter” value came to 1.89 cm in the experiment with Botryosphaeria dothidea [3] (setting [5]) and 1.70 cm in the experiment with Botryosphaeria dothidea [4] (setting [5]).
